Drawing on patent publication US20180264146A1, “NOVEL IMAGING COMPOUNDS” (AC IMMUNE S.A., priority 2015, published 2018), this text covers IC50 for 15 compounds.

Some results are limits rather than exact numbers.

Assay [1] concerns the target Tau in human Alzheimer disease brain homogenate (stage Braack V), [18F]-labeled Tau-Reference binder (Homo sapiens, UniProt P10636). Description: Tau radio-binding competition assay. To be noted: competition with [18F]-labeled Tau-Reference binder, human AD brain homogenate. The protocol: Tau Radio-Binding Competition Assay
20 μg of human Alzheimer disease brain homogenate (stage Braack V) was incubated with a dilution series of each test compound (1000 to 0.06 nM) in the presence of 800 Bq of [^18F]-labeled Tau-Reference binder. The samples were shaken at 110 rpm for 45 min at 37° C. Samples were then filtered through GF/B 96 well filter plates and two times washed with 300 μl assay buffer (PBS containing 0.1% BSA and 2% DMSO). Thereafter, filter plates were sealed and a Fuji Film Imaging Plate (BAS-SR2025) were placed on top. The imaging plate was analyzed the next day using a Fuji Film BAS-5000. Non-specific signal was determined with samples containing [^18F]-labeled Tau-Reference binder in the presence of assay buffer missing brain substrate and competitor. Specific binding was calculated by subtracting the non-specific signal from the measured sample signal. The unblocked [^18F]-labeled Tau-Reference binder signal was defined as total binding. IC50 values were calculated by Prism V6 (GraphPad) using total binding as 100%.

Another assay concerns the target T1, MAO-A human-recombinant (Homo sapiens, UniProt P21397).
T1 construct: purchased Sigma-Aldrich M7316
T1 sequence (P21397 1-527): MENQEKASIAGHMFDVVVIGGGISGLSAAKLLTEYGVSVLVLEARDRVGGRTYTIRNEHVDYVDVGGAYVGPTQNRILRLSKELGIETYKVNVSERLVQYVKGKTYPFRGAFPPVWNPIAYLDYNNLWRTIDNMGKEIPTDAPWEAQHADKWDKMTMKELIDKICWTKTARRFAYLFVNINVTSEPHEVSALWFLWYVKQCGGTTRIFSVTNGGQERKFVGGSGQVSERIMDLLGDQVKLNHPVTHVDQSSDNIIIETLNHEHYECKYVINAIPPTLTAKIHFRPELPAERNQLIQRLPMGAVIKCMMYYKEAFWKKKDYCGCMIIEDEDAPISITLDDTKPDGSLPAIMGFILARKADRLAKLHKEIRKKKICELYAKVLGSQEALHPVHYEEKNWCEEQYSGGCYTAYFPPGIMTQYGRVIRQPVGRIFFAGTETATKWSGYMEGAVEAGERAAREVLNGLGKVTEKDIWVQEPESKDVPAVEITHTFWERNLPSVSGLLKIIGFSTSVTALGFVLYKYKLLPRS
Description: Monoamine oxidase A (MAO-A) assay (MAO-Glo). Type of assay: biochemical. The note with it: read-out: MAO A binding. The protocol:
Monoamine Oxidase A (MAO-A) Assay
Compounds were tested for their capacity to modulate MAO-A activity within the MAO-Glo™ Assay (Promega, Cat.# V1402). In each well of a 96-well plate, 12.5 μl of 4×MAO Substrate solution (end-concentration in assay: 40 μM) were mixed with 12.5 μl of a 4× solution of the corresponding test compound (end-concentrations ranged from 10 μM to 1.37 nM). In the absence of a test compound (i.e. to gauge the total MAO-A activity), the corresponding volume of MAO Reaction Buffer (100 mM HEPES (pH 7.5), 5% glycerol) was added. To initiate the MAO reaction, 25 μl of 2×MAO-A enzyme solution (MAO-A human-recombinant, Sigma-Aldrich, Cat.# M7316; 1 μg MAO-A enzyme/25 μl MAO Reaction Buffer) were added per well and mixed briefly. For negative control reactions, 25 μl of MAO Reaction Buffer were added. Thereafter the plate was incubated at room temperature for 1 hour, following which, 50 μl of reconstituted Luciferin Detection Reagent were added per well and mixed briefly. The plate was then incubated at room temperature for 20 minutes to generate and stabilize the luminescent signal. The luminescent signal was subsequently measured and recorded on the TopCountNXT™ luminescence counter (PerkinElmer). Data were analyzed and graphs were prepared using the Graphpad Prism 6 software.

The target of the next assay is T2, MAO-B human-recombinant (Homo sapiens, UniProt P27338).
T2 construct: purchased Sigma-Aldrich M7441
T2 sequence (P27338 1-520): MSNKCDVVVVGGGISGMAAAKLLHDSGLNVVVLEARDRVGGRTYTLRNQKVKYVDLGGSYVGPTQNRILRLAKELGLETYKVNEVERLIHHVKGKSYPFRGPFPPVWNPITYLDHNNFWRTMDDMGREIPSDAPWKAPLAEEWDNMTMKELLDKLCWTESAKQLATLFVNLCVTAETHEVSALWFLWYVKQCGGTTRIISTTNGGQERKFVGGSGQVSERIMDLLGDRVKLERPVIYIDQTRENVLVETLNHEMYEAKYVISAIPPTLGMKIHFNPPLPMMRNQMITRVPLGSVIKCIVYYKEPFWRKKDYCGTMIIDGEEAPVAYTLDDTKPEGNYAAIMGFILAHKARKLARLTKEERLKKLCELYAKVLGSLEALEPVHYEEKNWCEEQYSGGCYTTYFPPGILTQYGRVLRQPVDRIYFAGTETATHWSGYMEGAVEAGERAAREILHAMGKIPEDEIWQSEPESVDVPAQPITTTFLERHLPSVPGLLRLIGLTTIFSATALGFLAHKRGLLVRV
Description: MAO-B assay (MAO-Glo). Type of assay: biochemical. To be noted: read-out: MAO B binding. The procedure:
Compounds were tested for their capacity to modulate MAO-B activity within the MAO-Glo™ Assay (Promega, Cat.# V1402). In each well of a 96-well plate, 12.5 μl of 4×MAO Substrate solution (end-concentration in assay: 4 μM) were mixed with 12.5 μl of a 4× solution of the corresponding test compound (end-concentrations ranged from 10 μM to 1.37 nM). In the absence of a test compound (i.e. to gauge the total MAO-B activity), the corresponding volume of MAO-B Reaction Buffer (100 mM HEPES (pH 7.5), 5% glycerol, 10% dimethyl sulphoxide) was added. To initiate the MAO reaction, 25 μl of 2×MAO-B enzyme solution (MAO-B human—recombinant, Sigma-Aldrich, Cat.# M7441; 1 μg MAO-B enzyme/25 μl MAO-B Reaction Buffer) were added per well and mixed briefly. For negative control reactions, 25 μl of MAO-B Reaction Buffer were added. Thereafter the plate was incubated at room temperature for 1 hour, following which, 50 μl of reconstituted Luciferin Detection Reagent were added per well and mixed briefly. The plate was then incubated at room temperature for 20 minutes to generate and stabilize the luminescent signal. The luminescent signal was subsequently measured and recorded on the TopCountNXT™ luminescence counter (PerkinElmer). Data were analyzed and graphs were prepared using the Graphpad Prism 6 software.

Sequence of Tau in human Alzheimer disease brain homogenate (stage Braack V), [18F]-labeled Tau-Reference binder (P10636 623-695 limits assumed): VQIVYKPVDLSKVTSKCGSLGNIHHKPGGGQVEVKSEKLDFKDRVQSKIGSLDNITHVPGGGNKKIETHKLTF

With `F[C@H]1CCN(c2ccc3c(n2)[nH]c2ccncc23)C1` [Example 1], the IC50 in assay [1] is 6 nM; on MAO-A human-recombinant, greater than 1000 nM; on MAO-B human-recombinant, greater than 1000 nM.
With `FCCOC1CCN(c2ccc3c(n2)[nH]c2ccncc23)CC1` [Example 2], the IC50 is 4 nM in assay [1], greater than 6000 nM on MAO-A human-recombinant and greater than 1000 nM on MAO-B human-recombinant.
`FCCOCCOC1CCN(c2ccc3c(n2)[nH]c2ccncc23)CC1` [Example 5]: the IC50 was 6 nM in assay [1], greater than 2000 nM at MAO-A human-recombinant and greater than 1000 nM on MAO-B human-recombinant.
For `F[C@@H]1CCN(c2ccc3c(n2)[nH]c2ccncc23)C1` [Example 6], in that order: 7 nM, 940 nM and greater than 1000 nM.
As to `OC(CF)COC1CCN(c2ccc3c(n2)[nH]c2ccncc23)CC1` (stereo not shown) [Example 7], the figures for the IC50 (in assay [1]; at MAO-B human-recombinant) were 3 nM and greater than 1000 nM, respectively.
As for `OC1(CF)CCN(c2ccc3c(n2)[nH]c2ccncc23)CC1` [Example 8], the IC50 in assay [1] was 40 nM; on MAO-A human-recombinant, 940 nM; at MAO-B human-recombinant, greater than 1000 nM.
For `FC1CC2(C1)CN(c1ccc3c(n1)[nH]c1ccncc13)C2` [Example 12], in that order: 13 nM, 570 nM and greater than 1000 nM.
For `FCCOC1CC2(C1)CN(c1ccc3c(n1)[nH]c1ccncc13)C2` [Example 13], in that order: 16 nM, greater than 2000 nM and greater than 1000 nM.
In turn, `[2H]C([2H])(F)CCOC1CCN(c2ccc3c(n2)[nH]c2ccncc23)CC1` [Example 19] displayed an IC50 in assay [1] of 2.3 nM.
Still for that read-out and setting: next, `FCCOCCC1CCN(c2ccc3c(n2)[nH]c2ccncc23)CC1` [Example 21]: 1.5 nM; `FCC(F)COC1CCN(c2ccc3c(n2)[nH]c2ccncc23)CC1` (stereo not shown) [Example 24]: 8 nM.
For the compound `F[C@@H]1CCCN(c2ccc3c(n2)[nH]c2ccncc23)C1` [Example 25], the IC50 in assay [1] was found to be 5.4 nM; at MAO-A human-recombinant, 1020 nM.
Turning to `F[C@H]1CCCN(c2ccc3c(n2)[nH]c2ccncc23)C1` [Example 26], in assay [1], the IC50 is 16 nM.
In the case of `FC1CCN(c2ccc3c(n2)[nH]c2ccncc23)CC1` [Example 27], the IC50 in assay [1] was determined as 3 nM.
On the same count and under the same terms, next, `FC1CC2(CCN(c3ccc4c(n3)[nH]c3ccncc34)CC2)C1` [Example 28]: 5.2 nM.
